The values below are quoted from earlier work in patent US9303066B2 (priority 2011, dated 2016).

Positions of bridges follow the written chain, without caps; N, C: chain ends. Residues, ends and D or L forms follow the SMILES beside them. No end group written: not given here.

The conditions of data set [1]: in vivo, po.
Data set [2] deals with T1, GC-C (Homo sapiens, UniProt P25092). The arrangement: from tissue; host or cells: intestinal epithelium (luminal surface) in vivo. Particulars: in vivo, po.
For data set [3] the following is noted: 37° C.
Data set [4] addresses T1, GC-C. Particulars: cultured GC-C-expressing cells.

T1 sequence (P25092 24-1073, species assumed): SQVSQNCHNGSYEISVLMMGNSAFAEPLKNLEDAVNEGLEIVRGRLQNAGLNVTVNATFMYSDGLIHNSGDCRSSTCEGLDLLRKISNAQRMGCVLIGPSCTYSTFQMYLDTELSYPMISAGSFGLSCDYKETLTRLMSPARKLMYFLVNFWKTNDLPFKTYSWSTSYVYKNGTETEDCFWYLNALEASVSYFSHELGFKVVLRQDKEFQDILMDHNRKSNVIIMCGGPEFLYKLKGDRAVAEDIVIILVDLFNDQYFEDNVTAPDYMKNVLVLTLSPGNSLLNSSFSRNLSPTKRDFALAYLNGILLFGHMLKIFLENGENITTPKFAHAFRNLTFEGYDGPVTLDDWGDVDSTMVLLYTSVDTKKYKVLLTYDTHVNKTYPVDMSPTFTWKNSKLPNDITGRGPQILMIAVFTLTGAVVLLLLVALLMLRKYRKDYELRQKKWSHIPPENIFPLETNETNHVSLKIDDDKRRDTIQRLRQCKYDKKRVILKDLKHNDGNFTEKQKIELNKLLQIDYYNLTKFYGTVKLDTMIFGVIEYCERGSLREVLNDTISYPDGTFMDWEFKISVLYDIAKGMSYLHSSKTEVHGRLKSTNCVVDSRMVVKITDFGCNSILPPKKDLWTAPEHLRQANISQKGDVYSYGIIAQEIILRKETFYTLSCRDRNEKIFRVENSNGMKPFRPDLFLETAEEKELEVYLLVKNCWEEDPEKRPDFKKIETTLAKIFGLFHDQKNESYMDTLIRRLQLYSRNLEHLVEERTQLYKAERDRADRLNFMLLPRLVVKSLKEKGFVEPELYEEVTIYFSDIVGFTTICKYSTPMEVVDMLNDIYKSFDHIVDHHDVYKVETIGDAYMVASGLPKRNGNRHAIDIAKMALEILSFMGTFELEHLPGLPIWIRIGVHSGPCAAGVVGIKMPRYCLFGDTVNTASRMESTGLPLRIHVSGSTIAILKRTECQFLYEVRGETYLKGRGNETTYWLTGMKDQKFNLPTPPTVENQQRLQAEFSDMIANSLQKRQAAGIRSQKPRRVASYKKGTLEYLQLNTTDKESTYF

As for `C[C@@H]1NC(=O)[C@@H]2CCCN2C(=O)[C@H](CC(N)=O)NC(=O)[C@@H]2CSSC[C@H](N)C(=O)N[C@H]3CSSC[C@H](NC1=O)C(=O)N[C@@H]([C@@H](C)O)C(=O)NCC(=O)N[C@H](C(=O)N[C@@H](Cc1ccc(O)cc1)C(=O)O)CSSC[C@H](NC(=O)[C@H](Cc1ccc(O)cc1)NC(=O)[C@H](CCC(=O)O)NC3=O)C(=O)N2` [Linaclotide] (H-CCEYCCNPACTGCY-OH; disulfide 1-6, 2-10, 5-13), in data set [1], the levels seen systemically is reported as “no detectable levels”. At GC-C [2], the GI transit entry is recorded as “increased GI transit”, the bloating result is recorded as “reduced bloating” and the visceral pain result is on record as “reduced visceral pain”.

Turning to “NDDCELCVNVACTGCL (cysteine pairing not given here) [human Ugn]”, the “half-life of each form (A and B conformation)” value in data set [3] is recorded as “about 2 days”.

For “UgnB: B conformational stereoisomer of human uroguanylin, separated by HPLC (NDDCELCVNVACTGCL; disulfide 4-12, 7-15; also: B conformational stereoisomer (HPLC-separated); UniProt Q16661 97-112, looked up)”, the “fold less potent than UgnA” value in the data set with GC-C [4] is given as “more than 100 fold”.
